Assay results from US20210196731A1, “COMPOSITIONS AND METHODS FOR TREATING OCULAR INFLAMMATION AND OCULAR SCARRING” (priority 2018, published 2021).

How the values were obtained:
Format in all cases: cell-based, human
[1] = test system: pSMAD2/3; assay: Western blot of HTCF protein lysate, pSMAD2/3; conditions: ASA 500 or 1000 μg/ml, APHS 12 μg/ml, 48 hrs; for ratio of pSMAD2/3 to tSMAD2/3 (proportion of active to total SMAD2/3): AHGFs; for AHGF-induced levels of pSMAD2/3: with or without gentamicin 250 or 500 μg/ml
Procedure: (§1) Cells were lysed in lysis buffer (PhosphoSafe Extraction Reagent, Novagen) containing a protease inhibitor cocktail (P2714, Sigma-Aldrich). Crude protein lysate was quantified using a Pierce BCA protein assay kit (ThermoFisher, Mississauga, ON) and 10 ug from each sample was resolved using a Novex WedgeWell 4-20% tris-glycine gel (Invitrogen). Using an iBlot Gel Transfer Device (IB1001, Invitrogen), the separated protein was transferred to a nitrocellulose membrane (1B301001, iBlot Transfer Stack, Invitrogen) which was then blocked with 5% (w/v) bovine serum albumin (Sigma-Aldrich) in Tris buffered saline (TBST) for 1 hour at room temperature. The membranes were incubated overnight at 4° C. with primary antibody diluted in TBST containing 5% BSA (w/vol). […] Visualization was accomplished by applying WesternBright Quantum chemiluminescent reagent (Advansta, Inc.), with GAPDH used as a protein loading control. Imaging and relative densiometric quantification was accomplished using a ChemiDoc MP System (Bio-Rad Laboratories, Inc.) connected to Image Lab (Version 6, Bio-Rad Laboratories, Inc.).

[2] = test system: HTCFs; assay: Cytotoxicity assay, in situ fluorescence-based LIVE/DEAD (fluorescein diacetate/propidium iodide)
Procedure: To assess the relative cellular viability between different experimental conditions, an in situ fluorescence-based LIVE/DEAD assay was used. This is a well reported method for estimating the cytotoxicity of an intervention. In brief, two florescent dyes, fluorescein diacetate and propidium iodide, are added to the culture media surrounding the collagen constructs. Fluorescein diacetate is converted into a […] fluorescent molecule by esterases within living cells. Propidium iodide (red) cannot pass through a viable cell's membrane, however it can penetrate disordered areas of dead cell membranes and then intercalates with the nuclear DNA. After a 5 min incubation with the staining solution, collagen constructs were washed with PBS and immediately imaged on a laser-scanning confocal microscope (A1R HD Nikon Instruments Inc., Tokyo, Japan). Ten random frames were taken with the 20× objective per tissue section, with three tissue sections imaged per patient cell line and treatment group. The laser intensity settings were kept consistent between samples to facilitate consistent comparison between replicates.
Using ImageJ, blue signals were counted within every frame and counted as living cells. The same was done for red signals, and these were counted as dead cells. The ratio of living (blue) to total (blue+red) cells was recorded.

[3] = test system: collagen 1; assay: Western blot of HTCF protein lysate, collagen 1; conditions: ASA 500 or 1000 μg/ml, APHS 12 μg/ml, with or without gentamicin 250 or 500 μg/ml, 48 hrs
Procedure: as §1

[4] = test system: αSMA; assay: Western blot of HTCF protein lysate, αSMA
Procedure: as §1

[5] = test system: SMAD2/3; assay: Western blot of HTCF protein lysate, SMAD2/3; conditions: ASA 500 or 1000 μg/ml, APHS 12 μg/ml, 48 hrs
Procedure: as §1

[6] = ASA 500 or 1000 μg/ml, APHS 12 μg/ml, with or without gentamicin 250 or 500 μg/ml, 48 hrs (FIG. 17B)

SMILES: CCCCC#CCSc1ccccc1OC(C)=O [APHS, o-(acetoxyphenyl)hept-2-ynyl sulfide]
- ratio of pSMAD2/3 to tSMAD2/3 (proportion of active to total SMAD2/3) [1]: significantly reduce the proportion of active to total SMAD2/3 from AHGF-induced levels
- AHGF-induced levels of pSMAD2/3 [1]: significantly reduced
- relative proportion of living to total cells ([2]; AHGFs, APHS 24 μg/ml, alone or with gentamicin 750 μg/ml): unchanged relative to the AHGFs control group
- AHGF-induced expression of collagen 1 [3]: significantly reduced
- AHGF-induced expression of αSMA [4, 6]: significantly reduced
- AHGF-induced expression of SMAD2/3 [5]: significantly reduced

SMILES: CC(=O)Oc1ccccc1C(=O)O [ASA, acetylsalicylic acid]
- ratio of pSMAD2/3 to tSMAD2/3 (proportion of active to total SMAD2/3) [1]: significantly reduce the proportion of active to total SMAD2/3 from AHGF-induced levels
- AHGF-induced levels of pSMAD2/3 [1]: significantly reduced
- relative proportion of living to total cells ([2]; AHGFs, ASA 1500 μg/ml, with or without gentamicin 750 μg/ml, mitomycin C 0.2 mg/ml for 1, 2 or 4 minutes): unchanged relative to vehicle control
- relative proportion of living to total cells ([2]; Collagen Contraction Assay III conditions, ASA 1000 or 1500 μg/ml, with or without gentamicin, four days): unchanged relative to vehicle control
- AHGF-induced expression of collagen 1 [3]: significantly reduced
- AHGF-induced expression of αSMA ([4]; ASA 100, 400, 1600 μg/ml, 48 hrs (FIG. 16)): significantly impaired the AHGF-induced expression of αSMA
- AHGF-induced expression of αSMA [4, 6]: significantly reduced
- AHGF-induced expression of SMAD2/3 [5]: significantly reduced
